Results on two compounds are retold here after patent US20070275936A1, “Formulations and Treatment Methods” (priority 1998, published 2007).

The inhibition is the percentage by which the read-out fell short of the control.

Assay [1] deals with pentosephosphate shunt (PPS) activity in normal human RBC. In words: PPS flux in whole normal human RBC. The assay is classed as cell-based. The source says:
The effect of BrEA on pentosephosphate shunt (PPS) activity in normal human RBC was examined using whole cells. Since glucose-6-phosphate dehydrogenase (“G6PD”) is the limiting enzyme of the PPS, PPS flux measurement is considered to better reflect G6PD activity in the whole cell compared to G6PD activity measurement in a cell lysate. […] PPS flux and G6PD activity in the whole RBC depends on a number of factors (the concentration of NADPH, NAD, and ATP, and intracellular pH), which are kept constant if the measurement is performed in the lysate and may vary in the whole RBC. Levels of G6PD activity in cells is considerably above normal basal needs and inhibition of overall G6PD activity might have no or minor consequence on PPS flux in the whole cell. […] A series of experiments were performed using varying amounts of BrEA and PPS flux was measured in unstimulated basal RBC and in methylene-blue (MB)-stimulated RBC.
Different concentrations of BrEA (0.3, 3.5 and 7 micromolar, final) were supplemented to suspensions of washed RBC suspended in RPMI, pH 7.4 at 10% hematocrit, whereby PPS flux was immediately measured without further incubation and without further washings.
In these experiments, different concentrations of BrEA ˜0.8, 8 and 80 micromolar, final) were supplemented to suspensions of washed RBC suspended in RPMI, pH 7.4 at 10% hematocrit. After a 90-min incubation at 37° C. with and without BrEA, PPS flux was measured.

For another assay, the system named is HIV. In words: HIV RNA level by PCR in HIV/HCV infected patient dosed I.V. with BrEA. The settings on record: predosing 5.2. The assay is classed as in vivo. The procedure: A patient infected with HIV and HCV was dosed I.V. with BrEA for 3 consecutive days using a formulation that contained 20 mg/mL BrEA in 45% w/v hydroxypropyl-β-cyclodextrin and saline. Four mL of the formulation (80 mg BrEA) was administered to the patient every 4 hours during the 3 day treatment period. The patient's predosing HCV level was 6.5 Log10 as measured by PCR and the HCV level was 6.2 Log10 on the first day of dosing, 5.5 Log10 on the 3rd day of dosing and 4.9 Log10 three days after the last dose was administered. HIV RNA levels as measured by PCR was 5.2 Log10 (predosing), 5.8 Log10 (first day), 5.9 Log10 (third day) and 5.4 Log10 (day 6). The NK cell counts (cells/mm^3) were 28, 41 and 38 at predosing, day 0 and day 3.

For a further assay, the system named is Wistar rats. In words: DNBS induced distal colitis in rats. The assay is classed as in vivo. As to the method:
Groups of 3 male Wistar rats (180±20 grams) fasted for 24 hours before 2,4-dinitrobenzene sulfonic acid (DNBS) or saline challenge were used. Distal colitis was induced by intra-colonic instillation of 0.5 mL of an ethanolic solution of DNBS (30 mg in 0.5 mL of a 30% ethanol in saline solution) after which 2 mL of air was injected through the cannula to ensure that the solution remained in the colon. The volume used was 0.1 mL per injection of 2 and 20 mg/mL of 7-oxodehydroepiandrosterone in a liquid formulation, was administered by subcutaneous injection once a day for 6 days. The formulation contained […] of 7-oxodehydroepiandrosterone in a non-aqueous suspension that contained 2% benzyl alcohol w/v, 0.1% Brij 96 w/v and equal volumes of PEG 300 and propylene glycol. Concentrations of 2 mg/mL and 20 mg/mL were obtained by diluting the […] with vehicle that lacked the active substance.
The first dose was given 30 minutes after DNBS challenge. Sulfasalazine (30 mg/mL in 2% Tween 80 in distilled water) was administered orally (PO) once a day (10 mL/kg/day) for 7 days, the first two doses beginning 24 hours and 2 hours before DNBS challenge. The presence of diarrhea was recorded daily by examining the anal area. Animals were fasted for 24 hours prior to being sacrificed. Animals were sacrificed on day 7 or day 8 and their colons were removed and weighed. Before removal of the colon, signs of adhesion between the colon and other organs were recorded. Also, the presence of ulcerations was noted after weighing of each colon. The “net” change of colon-to-body weight (BW) ratio was normalized relative to saline-challenged baseline group. A 30% decrease in “net” colon-to-body weight ratio was considered significant.
A total of five studies were conducted. Data from the first study are reported in this report. The 7-oxodehydroepiandrosterone at 2 and 20 mg/mL, decreased the net colon-to-body weight ratio by 19 and by 14% relative to vehicle-treated group, respectively. […] The formula 1 compound 3β,7β,17β-trihydroxyandrost-5-ene (AET) was administered by subcutaneous injections of 2 and 20 mg/day for 5 or 6 days, with the first dose injected 30 minutes post-DNBS challenge. The AET formulation was the same as the 7-oxodehydroepiandrosterone formulation, except that AET replaced 7-oxodehydroepiandrosterone. AET decreased the net colon-to-body weight ratio by 15% and 21% relative to controls (see the table below). Animals treated with AET (20 mg/kg) had no diarrhea. […] The same formulations containing BrEA hemihydrate (100 mg/mL) or dehydroepiandrosterone (20 mg/mL) decreased the net colon-to-body weight ratio by 21 and 3%, respectively relative to controls.

For the compound `C[C@]12CC[C@H](O)C[C@@H]1CC[C@@H]1[C@@H]2CC[C@]2(C)C(=O)[C@H](Br)C[C@@H]12` [BrEA, 16α-bromo-3β-hydroxy-5α-androstane-17-one], the PPS flux in assay [1] (0.3 μM, MB stimulated RBC, no incubation, DMSO control 5090) was found to be 5000 micromoles/hour/ml RBC; in assay [1] (0.3 μM, unstimulated RBC, no incubation, DMSO control 270) it was 250 micromoles/hour/ml RBC; in assay [1] (0.8 μM, MB stimulated, 90-min incubation, average of 3 experiments, DMSO control 4890), 4930 micromoles/hour/ml RBC; in assay [1] (0.8 μM, unstimulated, 90-min incubation at 37° C., average of 3 experiments, DMSO control 480), 410 micromoles/hour/ml RBC; in assay [1] (3.5 μM, MB stimulated RBC, no incubation, DMSO control 5090), 4950 micromoles/hour/ml RBC; in assay [1] (3.5 μM, unstimulated RBC, no incubation, DMSO control 270), 270 micromoles/hour/ml RBC. Moreover, the PPS flux in assay [1] (7 μM, MB stimulated RBC, no incubation, DMSO control 5090) came to 4660 micromoles/hour/ml RBC; in assay [1] (7 μM, unstimulated RBC, no incubation, DMSO control 270), 295 micromoles/hour/ml RBC; in assay [1] (8 μM, MB stimulated, 90-min incubation, average of 3 experiments, DMSO control 4890) it was 4430 micromoles/hour/ml RBC; in assay [1] (8 μM, unstimulated, 90-min incubation, average of 3 experiments, DMSO control 480), 450 micromoles/hour/ml RBC; in assay [1] (80 μM, MB stimulated, 90-min incubation, average of 3 experiments, DMSO control 4890) it was 3660 micromoles/hour/ml RBC; in assay [1] (80 μM, unstimulated, 90-min incubation, average of 3 experiments, DMSO control 480), 450 micromoles/hour/ml RBC. The “inhibition of MB-stimulated PPS flux” value in assay [1] (7 μM, no incubation) is “minor inhibition”. In addition, in assay [1] (Homo sapiens, 1.5 h, 8 micromolar, 90-min incubation, p=0.006 vs control+DMSO, read-out: Inhibition of MB-stimulated PPS flux), the inhibition at 8 µM came out at 10%. Also, the inhibition at 80 µM in assay [1] (Homo sapiens, 1.5 h, 80 micromolar, 90-min incubation, p=0.002 vs control+DMSO, read-out: Inhibition of MB-stimulated PPS flux) came out at 25%. Also, the “HIV RNA levels by PCR” value in the assay on HIV (day 6) stood at 5.4 Log10; in the assay with HIV (first day) it was 5.8 Log10; in the assay on HIV (third day), 5.9 Log10.

Turning to `C[C@]12CC[C@H](O)CC1=CC[C@@H]1[C@@H]2CC[C@]2(C)C(=O)CC[C@@H]12` [DHEA, dehydroepiandrosterone, reference compound], the “animals with severe acute inflammation” value in the assay with Wistar rats (7 days after DNBS challenge, 3 of 10 in immunosteroid vehicle controls) turned out to be 10 animals. Moreover, in the assay with Wistar rats (7 days after DNBS challenge, 5 of 10 in immunosteroid vehicle controls), the “animals with moderate acute inflammation” value stood at 0 animals. Further, in the assay on Wistar rats (14 days after DNBS challenge, 8 of 10 in immunosteroid vehicle controls), the “animals with severe chronic inflammation” value is recorded as 3 animals. Further, the “decrease of net colon-to-body weight ratio relative to vehicle/controls” value in the assay on Wistar rats (DNBS rats, 20 mg/mL formulation s.c.) is on record as 3%. The “animals with severe ulceration” value is listed as 10 of 10 in the assay with Wistar rats (day 7 (acute inflammation) after DNBS challenge, vehicle control 8 of 10) and 0 of 10 in the assay on Wistar rats (day 14 (chronic inflammation) after DNBS challenge, vehicle controls 5 of 10).
